In brackets after ≈: the same amount, converted by molar mass.
Columns and labels:
[1] = test system: influenza virus (K09) expressing GFP; format: cell-based; design: key: ◯ = effective; X = ineffective
[2] = test system: novel influenza virus (K09); assay: microbe, parasite or virus in culture; format: cell-based; settings: for SI value K09: CC50/EC50; for EC50: MDCK, 72 h, read-out: Plaque reduction (Experimental Example 2) EC50
[3] = Cytotoxicity assay using MTT; format: cell-based; settings: dog, MDCK cells infected with influenza virus (K09), MDCK cell infected with K09; compound 24 hours; read-out: MTT assay (Experimental Example 3) CC50
Experimental: In this experiment, a cell was infected with a virus, and then the virus was directly treated with a compound so as to determine if the virus-infected cell has toxicity. For this, a cell (MDCK) was infected with an influenza virus (K09) for 1 hour, and treated with the compound with different concentrations for 24 hours. Then, the cell was treated with a MTT reagent for 1 hour. After 1 hour, a formazan crystal produced by the MTT reagent was dissolved in DMSO, and the absorbance was measured by an ELISA reader so as to determine CC50.
measured by MTT assay. A maximum concentration of the compound, at which the number of cells is reduced to half or more compared to that of a control group

[4] = test system: novel influenza virus (B/Field); assay: microbe, parasite or virus in culture; format: cell-based; settings: unidentified influenza virus
[5] = test system: H1N1 influenza virus (solomon); assay: microbe, parasite or virus in culture; format: cell-based; settings: Solomon (H1N1); for EC50: Influenza A virus, read-out: EC50; for SI value: CC50/EC50
[6] = Acute toxicity test through oral administration in a rat; format: in vivo; settings: Sprague-Dawley (SD), in vivo; male SD-Rat, single oral administration, 14 days observation
Experimental: The acute toxicity of the inventive compound was determined through oral administration in a rat. Since the compound is expected to be orally administered in a clinical situation, an oral administration route was selected. A male rat aged 6 weeks (SD-Rat, 220±30 g) was subjected to quarantine, and acclimated for 1 week under a condition of lighting of 12 hours (08:00˜20:00), and luminance of 150-300 Lux at 22±3° C. at a relative humidity of 50±20%, while being freely fed with feed and water. Each of a control group and an experimental group include 8 rats. The control group was orally administered with 0.5% HPMC, and the experimental group was orally administered with a material (different concentrations) suspended in 0.5% HPMC, by using a sonde in an amount in proportion to the measured weight of each individual.
The concentration of the drug administered to the experimental group was set as 2000 mg/kg (the highest concentration for a single dose administration in a non-clinical test), and 1000 mg/kg, and 500 mg/kg (with a common ratio). For 14 days from drug administration, clinical symptoms were observed while the weight change was measured. Test animals that died during the test were subjected to autopsy, and abnormalities of main organs (heart, liver, lung, spleen, kidney, and large intestine) were observed and recorded. On the last day of the test (on the 14th day from the administration), all individuals were subjected to autopsy, and the changes of the organs caused by a test material were observed and compared to those in the control group. In the control group, no rats had died, and abnormalities were not observed through autopsy.
Each group was orally administered in a concentration of 500 mg/kg, 1000 mg/kg, and 2000 mg/kg. For 14 days from the administration, according to the test method, clinical symptoms were observed. […] Also, in the groups administered in various amounts, no individuals died. […] Further, no abnormal responses were observed, and from the autopsy results, no peculiarities were observed.

Row | Structure (SMILES) | GFP reduction (Experimental Example 1) effect [1] | SI value K09 [2] | EC50 [2] [mg/L] | CC50 at 24 h [3] [mg/L] | EC50 [4] [mg/L] | EC50 [5] [mg/L] | SI value [5] | LD50 at 14 days [6] [mg/kg]
1 | COc1cccc(N2CCN(C(=O)c3c(-c4ccccc4C(F)(F)F)noc3C)CC2)c1 [Example 3, (4-(3-methoxyphenyl)piperazine-1-yl)(5-methyl-3-(2-(trifluoromethyl)phenyl)isoxazol-4-yl)methanone] | ◯ | 473.84 to 1903.03 | 0.33 to 0.65 (≈ 0.741 to 1.46 µM) | 308 to 628 (≈ 691 to 1410 µM) | > 50 | 0.064 to 0.094 (≈ 0.144 to 0.211 µM) | 3276.59 to 9812.50 | > 2000
2 | COc1cccc(N2CCN(C(=O)c3c(-c4ccccc4Cl)noc3C)CC2)c1 [Example 9, (3-(2-chlorophenyl)-5-methylisoxazol-4-yl)(4-(3-methoxyphenyl)piperazine-1-yl)methanone] | ◯ | 801.282 to 3205.128 | 0.195 to 0.39 (≈ 0.473 to 0.947 µM) | 312 to 625 (≈ 759 to 1520 µM) | > 50 | 0.048 to 0.097 (≈ 0.117 to 0.236 µM) | 3221.649 to 13020.833 | > 2000
3 | Cc1onc(-c2ccc(OC(F)(F)F)cc2)c1C(=O)N1CCN(c2ccc(Cl)c(Cl)c2)CC1 [Example 27, (4-(3,4-dichlorophenyl)piperazine-1-yl)(5-methyl-3-(4-(trifluoromethoxy)phenyl)isoxazol-4-yl)methanone] | ◯ | 2.5 to 8.13 | 2.4 to 3.9 (≈ 4.8 to 7.8 µM) | 9.77 to 19.5 (≈ 19.5 to 39 µM) | – | – | – | > 2000
4 | Cc1onc(-c2cccc(C(F)(F)F)c2)c1C(=O)N1CCN(c2ccc(Cl)c(Cl)c2)CC1 [Example 43, (4-(3,4-dichlorophenyl)piperazine-1-yl)(5-methyl-3-(3-(trifluoromethyl)phenyl)isoxazol-4-yl)methanone] | X | – | > 50 | 2500 (≈ 5160 µM) | – | – | – | –
5 | Cc1onc(-c2cccc(OC(F)(F)F)c2)c1C(=O)N1CCN(c2ccc(Cl)c(Cl)c2)CC1 [Example 51, (4-(3,4-dichlorophenyl)piperazine-1-yl)(5-methyl-3-(3-(trifluoromethoxy)phenyl)isoxazol-4-yl)methanone] | ◯ | 3.91 to 10.80 | 2.4 to 3.9 (≈ 4.8 to 7.8 µM) | 15.2 to 25.9 (≈ 30.5 to 51.8 µM) | – | – | – | –
6 | COc1ccccc1N1CCN(C(=O)c2c(-c3cccc(OC(F)(F)F)c3)noc2C)CC1 [Example 53, (4-(2-methoxyphenyl)piperazine-1-yl)(5-methyl-3-(3-(trifluoromethoxy)phenyl)isoxazol-4-yl)methanone] | ◯ | 160< | 3.12 (≈ 6.76 µM) | > 500 | – | – | – | –
7 | COc1ccccc1N1CCN(C(=O)c2c(-c3ccccc3Cl)noc2N)CC1 [Example 61, (5-amino-3-(2-chlorophenyl)isoxazol-4-yl)(4-(2-methoxyphenyl)piperazine-1-yl)methanone] | ◯ | 159.94 to 319.89 | 0.39 (≈ 0.945 µM) | 62.5 to 125 (≈ 151 to 303 µM) | – | – | – | > 2000
8 | Nc1onc(-c2cccc(F)c2)c1C(=O)N1CCN(c2ccc(Cl)c(Cl)c2)CC1 [Example 67, (5-amino-3-(3-fluorophenyl)isoxazol-4-yl)(4-(3,4-dichlorophenyl)piperazine-1-yl)methanone] | ◯ | 2.59 to 8.85 | 2.4 to 3.9 (≈ 5.51 to 8.96 µM) | 10.1 to 21.2 (≈ 23.2 to 48.8 µM) | – | – | – | –
9 | COc1cccc(N2CCN(C(=O)c3c(-c4cccc(F)c4)noc3N)CC2)c1 [Example 68, (5-amino-3-(3-fluorophenyl)isoxazol-4-yl)(4-(3-methoxyphenyl)piperazine-1-yl)methanone] | ◯ | 3.03 to 7.81 | 17.5 to 29 (≈ 44.1 to 73.2 µM) | 88.1 to 137 (≈ 222 to 345 µM) | – | – | – | –
10 | Nc1onc(-c2cccc(F)c2)c1C(=O)N1CCN(c2ccccc2O)CC1 [Example 72, (5-amino-3-(3-fluorophenyl)isoxazol-4-yl)(4-(2-hydroxyphenyl)piperazine-1-yl)methanone] | ◯ | 0.31 to 1.25 | 25 to 50 (≈ 65.4 to 131 µM) | 15.6 to 31.2 (≈ 40.8 to 81.7 µM) | – | – | – | –
11 | Nc1onc(-c2ccccc2F)c1C(=O)N1CCN(c2ccc(Cl)c(Cl)c2)CC1 [Example 75, (5-amino-3-(2-fluorophenyl)isoxazol-4-yl)(4-(3,4-dichlorophenyl)piperazine-1-yl)methanone] | ◯ | 12.5 to 25.0 | > 50 | 625 to 1250 (≈ 1440 to 2870 µM) | – | – | – | –
12 | Nc1onc(-c2ccccc2C(F)(F)F)c1C(=O)N1CCN(c2ccc(Cl)c(Cl)c2)CC1 [Example 91, (5-amino-3-(2-(trifluoromethyl)phenyl)isoxazol-4-yl)(4-(3,4-dichlorophenyl)piperazine-1-yl)methanone] | ◯ | 0.71 to 2.39 | 12.4 to 25.8 (≈ 25.7 to 53.2 µM) | 18.4 to 29.9 (≈ 37.8 to 61.6 µM) | – | – | – | –
13 | COc1cccc(N2CCN(C(=O)c3c(-c4ccc(OC(F)(F)F)cc4)noc3N)CC2)c1 [Example 100, (5-amino-3-(4-(trifluoromethoxy)phenyl)isoxazol-4-yl)(4-(3-methoxyphenyl)piperazine-1-yl)methanone] | ◯ | 0.49 to 12.57 | 29 to 37 (≈ 62.7 to 80 µM) | 18.4 to 46.5 (≈ 39.9 to 101 µM) | – | – | – | –
14 | Nc1onc(-c2cccc(C(F)(F)F)c2)c1C(=O)N1CCN(c2ccc(Cl)c(Cl)c2)CC1 [Example 107, (5-amino-3-(3-(trifluoromethyl)phenyl)isoxazol-4-yl)(4-(3,4-dichlorophenyl)piperazine-1-yl)methanone] | ◯ | 31.34 to 62.68 | 2.72 to 3.9 (≈ 5.6 to 8.04 µM) | 122 to 170 (≈ 252 to 351 µM) | – | – | – | > 2000
15 | COc1ccccc1N1CCN(C(=O)c2c(-c3cccc(C(F)(F)F)c3)noc2N)CC1 [Example 109, (5-amino-3-(3-(trifluoromethyl)phenyl)isoxazol-4-yl)(4-(2-methoxyphenyl)piperazine-1-yl)methanone] | ◯ | 42.07 to 125.4 | 1.52 to 3.5 (≈ 3.4 to 7.84 µM) | 147 to 191 (≈ 330 to 427 µM) | – | – | – | > 2000
16 | Nc1onc(-c2cccc(C(F)(F)F)c2)c1C(=O)N1CCN(c2ccccc2O)CC1 [Example 112, (5-amino-3-(3-(trifluoromethyl)phenyl)isoxazol-4-yl)(4-(2-hydroxyphenyl)piperazine-1-yl)methanone] | ◯ | 0.33 to 1.37 | 25 to 50 (≈ 57.8 to 116 µM) | 16.5 to 34.3 (≈ 38.2 to 79.3 µM) | – | – | – | –
17 | Nc1onc(-c2cccc(OC(F)(F)F)c2)c1C(=O)N1CCN(c2ccc(Cl)c(Cl)c2)CC1 [Example 115, (5-amino-3-(3-(trifluoromethoxy)phenyl)isoxazol-4-yl)(4-(3,4-dichlorophenyl)piperazine-1-yl)methanone] | ◯ | 0.34 to 1.70 | 21 to 45 (≈ 41.9 to 89.8 µM) | 15.5 to 35.8 (≈ 30.9 to 71.3 µM) | – | – | – | –
18 | COc1cccc(N2CCN(C(=O)c3c(-c4cccc(OC(F)(F)F)c4)noc3N)CC2)c1 [Example 116, (5-amino-3-(3-(trifluoromethoxy)phenyl)isoxazol-4-yl)(4-(3-methoxyphenyl)piperazine-1-yl)methanone] | ◯ | 0.42 to 1.70 | 15 to 32 (≈ 32.4 to 69.2 µM) | 13.7 to 25.6 (≈ 29.5 to 55.4 µM) | – | – | – | –
19 | CCOC(=O)C1CCN(C(=O)c2c(-c3ccccc3Cl)noc2N)CC1 [Example 122, ethyl-1-(5-amino-3-(2-chlorophenyl)isoxazol-4-carbonyl)piperidine-4-carboxylate] | ◯ | 18.89 to 71.27 | 4.5 to 8.5 (≈ 11.9 to 22.5 µM) | 161 to 321 (≈ 425 to 849 µM) | – | – | – | > 2000

Source: patent US9132126B2, “Phenyl-isoxazole derivatives and preparation process thereof” (priority 2011, dated 2015)
